# Source: ChEMBL document CHEMBL4229566, “Discovery of ( S)-3-(3-(3,5-Dimethyl-1 H-pyrazol-1-yl)phenyl)-4-(( R)-3-(2-(5,6,7,8-tetrahydro-1,8-naphthyridin-2-yl)ethyl)pyrrolidin-1-yl)butanoic Acid, a Nonpeptidic αvβ6 Integrin Inhibitor for the Inhaled Treatment of Idiopathic Pulmonary Fibrosis” (J Med Chem, 2018)
# What was measured:
# [1] = target: T1, Voltage-gated inwardly rectifying potassium channel KCNH2 (Homo sapiens, UniProt Q12809)
# Description: Inhibition of human ERG expressed in HEK293 cells by Q-patch assay
# physchem = conditions: buffer, pH 7.4, logD
# [2] = target: T1, Voltage-gated inwardly rectifying potassium channel KCNH2; remark: listed apart in the source
# Description: Inhibition of human ERG expressed in HEK293 cells by Barracuda automated patch clamp assay
# [3] = Protein binding in human blood at 1 ug/ml after 4 hrs by LC-MS/MS analysis; assay type: ADME, tissue-based; conditions: at 1 µg/mL, read-out: PB (converted)
# T1 sequence (Q12809 whole entry): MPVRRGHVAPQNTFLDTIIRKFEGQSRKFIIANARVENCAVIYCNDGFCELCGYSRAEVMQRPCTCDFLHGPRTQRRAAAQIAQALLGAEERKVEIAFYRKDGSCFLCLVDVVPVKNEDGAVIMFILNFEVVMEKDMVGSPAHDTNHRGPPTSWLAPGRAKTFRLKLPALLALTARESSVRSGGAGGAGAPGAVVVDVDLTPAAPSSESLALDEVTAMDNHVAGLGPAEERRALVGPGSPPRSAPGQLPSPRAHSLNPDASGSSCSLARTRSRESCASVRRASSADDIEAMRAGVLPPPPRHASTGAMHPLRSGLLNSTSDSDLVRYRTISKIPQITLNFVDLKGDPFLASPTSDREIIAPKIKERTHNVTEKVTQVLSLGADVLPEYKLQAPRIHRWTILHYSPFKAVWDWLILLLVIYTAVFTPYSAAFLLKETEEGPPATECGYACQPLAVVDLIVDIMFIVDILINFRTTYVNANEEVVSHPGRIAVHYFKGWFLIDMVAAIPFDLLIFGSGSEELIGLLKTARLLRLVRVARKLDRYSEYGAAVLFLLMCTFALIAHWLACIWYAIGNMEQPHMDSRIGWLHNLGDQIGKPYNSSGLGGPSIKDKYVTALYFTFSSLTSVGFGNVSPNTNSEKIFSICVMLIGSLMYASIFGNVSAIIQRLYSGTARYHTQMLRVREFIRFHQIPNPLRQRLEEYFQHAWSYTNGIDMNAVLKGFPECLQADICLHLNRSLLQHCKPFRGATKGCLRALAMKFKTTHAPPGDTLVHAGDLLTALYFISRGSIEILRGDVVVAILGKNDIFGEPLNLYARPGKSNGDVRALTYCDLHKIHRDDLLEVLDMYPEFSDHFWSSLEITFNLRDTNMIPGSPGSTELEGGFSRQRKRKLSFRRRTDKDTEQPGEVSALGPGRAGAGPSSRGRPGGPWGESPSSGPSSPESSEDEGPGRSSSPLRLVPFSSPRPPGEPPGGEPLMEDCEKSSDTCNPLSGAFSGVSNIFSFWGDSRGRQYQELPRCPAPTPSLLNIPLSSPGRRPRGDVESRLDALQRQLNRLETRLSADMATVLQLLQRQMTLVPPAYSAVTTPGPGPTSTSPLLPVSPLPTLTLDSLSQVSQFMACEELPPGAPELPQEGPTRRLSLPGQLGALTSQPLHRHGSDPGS
SMILES,logD (physchem),"fraction unbound at 4 h, 1 ug/ml [3]",IC50 [1] [µM],IC50 [2] [µM]
Cc1cn(C)c(-c2cccc([C@H](CC(=O)O)CN3CC[C@@H](CCc4ccc5c(n4)NCCC5)C3)c2)n1,2.09,–,> 31.6,> 50.1
O=C(O)C[C@H](CN1CC[C@@H](CCc2ccc3c(n2)NCCC3)C1)c1cccc(-n2cnnc2)c1,1.05,0.46,> 31.6,> 50.1
Cc1cnn(-c2cccc([C@H](CC(=O)O)CN3CC[C@@H](CCc4ccc5c(n4)NCCC5)C3)c2)c1,3.01,–,–,10

# More lines, main results first:
logD (physchem),"fraction unbound at 4 h, 1 ug/ml [3]",SMILES,IC50 [1] [µM],IC50 [2] [µM]
3.07,–,O=C(O)C[C@H](CN1CC[C@@H](CCc2ccc3c(n2)NCCC3)C1)c1cc(C2CC2)cc(N2CCOCC2)c1,–,–
1.99,–,O=C(O)C[C@@H](CN1CC[C@@H](CCc2ccc3c(n2)NCCC3)C1)c1cccc(N2CCOCC2)c1,–,–
1.77,0.53,Cc1nc(C)c(-c2cccc([C@H](CC(=O)O)CN3CC[C@@H](CCc4ccc5c(n4)NCCC5)C3)c2)[nH]1,> 31.6,> 50.1
